Test results: PMC8938452

Experiment: three-component macrocyclisation: bis(chloroacetamide) (1 eq) + diamine (1.2 eq) + CS2 (8 eq); in situ dithiocarbamate formation then S-alkylation (C-S bond, Cl displacement) at both ends, metal-free, no added base, 15 min
Details: the molecule shown is the open-chain precursor, PEG-200, 400.0 mM, 25.0 °C, 0.25 h

CCCCN(CCN(CCCC)C(=S)SCC(=O)N(C)CCN(C)C(=O)CCl)C(=S)[S-] [1]
ring closure, isolated yield (16-membered ring): 61.3%

CN(CCN(C)C(=O)CSC(=S)N(C)CCN(C)C(=S)[S-])C(=O)CCl [2]
ring closure, isolated yield (16-membered ring): 24.1%

CN(CCN(C)C(=O)CSC(=S)NCCCNC(=S)[S-])C(=O)CCl [3]
ring closure, isolated yield (17-membered ring): 78.5%

O=C(CCl)NCCCNC(=O)CSC(=S)NCCCNC(=S)[S-] [4]
ring closure, isolated yield (18-membered ring): 85.3%

O=C(CCl)NCCCNC(=O)CSC(=S)NCCCCCCNC(=S)[S-] [5]
ring closure, isolated yield (21-membered ring): 74.7%

O=C(CCl)NCCCNC(=O)CSC(=S)N(CCN(Cc1ccccc1)C(=S)[S-])Cc1ccccc1 [6]
ring closure, isolated yield (17-membered ring): 69.4%

CN(CCN(C)C(=S)SCC(=O)NCCN(C(=O)CCl)c1cccc2ccccc12)C(=S)[S-] [7]
ring closure, isolated yield (16-membered ring): 84.6%
